From ChEMBL document CHEMBL1201862, “PubChem BioAssay data set” (2004)
Active and inactive are the calls of the source.

Columns and labels:
Galanin receptor type 3 = Galanin receptor type 3 (Homo sapiens, UniProt O60755); experiment: Fluorescence-based cell-based primary high throughput dose response assay to identify antagonists of the Galanin Receptor 3 (GalR3).; format: functional
cells = format: functional, cell-based; conditions: HEK-CNG
Beta-lactamase [1] = target: T1, Beta-lactamase (Salmonella choleraesuis (strain SC-B67), UniProt Q5J463)
Beta-lactamase [2] = target: T2, Beta-lactamase (Pseudomonas aeruginosa, UniProt Q79MP6)
Jurkat = experiment: antigen receptor-induced NF-kB inhibitors, dose response, Jurkat, luciferase reporter, luminescence, B- and T-cell (AID 489004); format: functional, cell-based; conditions: Homo sapiens;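 note: NF-kB luciferase reporter Jurkat cells stimulated with PMA plus ionomycin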
[3] = control 3'UTR Renilla luciferase suppression, dose response, counter-screen for Shn3 inhibitor project, cell-based, Clone20-Shn3RL, cherry-picked (AID 624133); format: functional
[4] = Shn3 3'UTR reporter inhibitors, dose response, cell-based, Clone20 osteoblasts, firefly luciferase, cherry-picked (AID 624132); format: functional;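 note: firefly luciferase luminescence from reporter carrying the Shn3 3'UTR in osteoblasts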
[5] = target: T3, COUP transcription factor 2 (Homo sapiens, UniProt P24468); experiment: Luminescence-based cell-based high throughput dose response assay to identify inhibitors of COUP-TFII (NR2F2).; format: functional;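 note: HEK293 cells transiently cotransfected with COUP-TFII expression vector and reporter; luciferase reporter luminescence driven by COUP-TFII from the pX2-168 reporter plasmid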
T3 sequence (P24468 whole entry): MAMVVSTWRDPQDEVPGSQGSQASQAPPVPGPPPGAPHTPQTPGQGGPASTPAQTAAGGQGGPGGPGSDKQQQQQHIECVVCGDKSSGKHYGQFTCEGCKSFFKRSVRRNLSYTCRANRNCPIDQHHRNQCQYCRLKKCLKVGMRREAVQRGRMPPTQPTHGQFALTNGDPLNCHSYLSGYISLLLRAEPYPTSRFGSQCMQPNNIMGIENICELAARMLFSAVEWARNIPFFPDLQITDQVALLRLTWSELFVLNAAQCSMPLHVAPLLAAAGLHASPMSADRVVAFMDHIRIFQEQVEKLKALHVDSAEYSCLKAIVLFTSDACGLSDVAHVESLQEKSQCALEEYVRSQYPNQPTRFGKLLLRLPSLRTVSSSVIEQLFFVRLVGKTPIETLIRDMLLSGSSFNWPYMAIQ

INS1 = experiment: beta cell apoptosis inhibitors, cytokine rescue, dose response, luminescence, retest (AID 449756); format: functional, cell-based; conditions: Rattus norvegicus;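 note: cell death triggered by IL-1 beta plus TNF-alpha plus IFN-gamma mixture; protective hits raise ATP signal compared with cytokine alone wells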
[6] = cytotoxicity in HEK-293T NF-kB-Luc cells, dose response, cytotoxicity control for B/T-cell NF-kB inhibitor project, cell-based, uHTS hits (AID 489019); format: functional;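 note: IC50 reflects cytotoxicity as loss of cell viability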
[7] = HepG2 cell cytotoxicity, dose response, cytotoxicity control for Shn3 inhibitor project, CellTiter-Glo, cherry-picked (AID 624134); format: functional, cell-based
Beta-lactamase [8] = target: T1, Beta-lactamase; experiment: Epi-absorbance-based counterscreen for selective VIM-2 inhibitors: dose response biochemical high throughput screening assay to identify inhibitors of TEM-1 serine-beta-lactamase.
Beta-lactamase [9] = target: T2, Beta-lactamase; experiment: […] counterscreen for selective VIM-2 inhibitors: dose response biochemical high throughput screening assay to identify inhibitors of IMP-1 metallo-beta-lactamase.
Beta-lactamase [10] = target: T2, Beta-lactamase; experiment: IMP-1 metallo-beta-lactamase inhibitors, dose response, selectivity assay for VIM-2 inhibitor project, biochemical, epi-absorbance (AID 1920)
[11] = target: T4, Probable nicotinate-nucleotide adenylyltransferase (Staphylococcus aureus (strain N315), UniProt P65502); format: functional, Staphylococcus aureus subsp. aureus N315; conditions: read-out: IC50_Mean;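 for IC50 Mean: confirmatory dose-response retesting of NadD inhibitor hits first found in an ultra-high-throughput screen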
[12] = target: T4, Probable nicotinate-nucleotide adenylyltransferase; format: functional, Staphylococcus aureus subsp. aureus N315
Large T antigen = Large T antigen (Simian virus 40, UniProt P03070); format: functional, Betapolyomavirus macacae;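 note: Confirmatory-stage PubChem screen for compounds that inhibit SV40 T antigen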
Beta Lactamase = Beta Lactamase (Pseudomonas aeruginosa, UniProt Q932Y6); experiment: beta-lactamase reporter inhibitor potency, dose response, artefact control for NOD2-RIPK2 interaction inhibitor project, BLA reporter cells, FRET fluorescence (AID 651552); format: functional, cell-based
[13] = Fluorescence-based cell-based high throughput dose response assay for inhibitors of the interaction of nucleotide-binding oligomerization domain containing 2 (NOD2) and the receptor-interacting serine-threonine kinase 2 (RIPK2).; format: functional; conditions: Homo sapiens
[14] = cytotoxicity toward NIH3T3 fibroblasts, dose response, counter-screen, cell-based, ATP luminescence, mouse fibroblasts (AID 2010); format: functional;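 note: cells exposed to compound for about 90 hours before reading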
[15] = inhibitors of intracellular T. cruzi replication, confirmation, NIH3T3 host cells, beta-gal luminescence (AID 2044); format: functional, cell-based;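 note: intracellular parasites grown in NIH/3T3 mouse fibroblasts as host cells; luminescent beta-galactosidase reporter signal from transgenic T. cruzi replicating inside host cells; inhibitors lower the luminescence signal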
[16] = target: FAD-linked sulfhydryl oxidase ALR (Homo sapiens, UniProt P55789); experiment: inhibitors of human ALR sulfhydryl oxidase, dose response, biochemical, H2O2 detection, luminescence, cherry-pick (AID 493248)
[17] = tested on: Streptococcus sp. 'group A'; experiment: growth inhibition of control SK(-) GAS strain, dose response, counter-screen for streptokinase expression inhibitor project, luminescence, kanamycin, BacTiterGlo, confirmation (AID 1900); format: functional, organism-based
[18] = target: T5, Ubiquitin-conjugating enzyme E2 N (Homo sapiens, UniProt P61088); format: functional;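 note: Dose-response confirmation in a TR-FRET assay detecting UBC13-driven polyubiquitin chain formation, inhibition measured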
T5 sequence (P61088 whole entry): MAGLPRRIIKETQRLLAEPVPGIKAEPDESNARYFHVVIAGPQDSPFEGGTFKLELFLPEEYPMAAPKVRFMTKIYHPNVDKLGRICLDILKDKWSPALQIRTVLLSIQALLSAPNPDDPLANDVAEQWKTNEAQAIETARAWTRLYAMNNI

Streptococcus = experiment: Group A Streptococcus viability loss, dose response, counter-screen for streptokinase expression inhibitor project, luminescence, BacTiterGlo (AID 1915); format: functional, organism-based;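 note: potency for reduction of bacterial viability or growth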
[19] = miR-122 activators in hepatoma reporter cells, dose response, cell-based, Huh7 psiCHECK-miR122, Renilla luciferase, cherry-picked (AID 651956); format: functional;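 note: huh7 hepatoma cells stably carrying a psiCHECK-2 miR-122 sensor plasmid; renilla luciferase signal reporting endogenous miR-122 activity after 48 h compound exposure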
Streptokinase A = target: T6, Streptokinase A (Streptococcus pyogenes serotype M1, UniProt P10520); experiment: S. pyogenes streptokinase expression inhibitors, potency, dose response, plasminogen activation absorbance, OD405 (AID 1914); format: functional, Streptococcus pyogenes M1 GAS;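 note: secreted streptokinase activity via plasminogen activation per viability signal from cell pellet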
T6 sequence (P10520 whole entry): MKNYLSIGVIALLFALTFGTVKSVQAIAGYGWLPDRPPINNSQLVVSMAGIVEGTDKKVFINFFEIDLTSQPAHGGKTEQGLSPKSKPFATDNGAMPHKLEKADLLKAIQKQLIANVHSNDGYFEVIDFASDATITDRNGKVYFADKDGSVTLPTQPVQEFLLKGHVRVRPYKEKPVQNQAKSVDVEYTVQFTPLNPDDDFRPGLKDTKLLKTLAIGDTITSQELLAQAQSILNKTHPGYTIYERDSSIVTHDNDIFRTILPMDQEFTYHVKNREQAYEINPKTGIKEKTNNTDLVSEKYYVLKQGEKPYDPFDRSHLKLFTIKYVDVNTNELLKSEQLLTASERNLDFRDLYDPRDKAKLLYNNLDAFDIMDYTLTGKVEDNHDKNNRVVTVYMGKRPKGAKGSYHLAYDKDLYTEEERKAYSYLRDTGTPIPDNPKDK

[20] = non-specific cell cytotoxicity, dose response, cytotoxicity control for PAX8 inhibitor project, plate reader, dry powder samples (AID 743021); format: functional, cell-based
Paired box protein Pax-8 = Paired box protein Pax-8 (Homo sapiens, UniProt Q06710); experiment: inhibitors of PAX8-driven TPO luciferase reporter, dose response, RMG-I cells, cherry-pick (AID 687027); format: functional, cell-based;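 note: luciferase reporter driven by Pax8 target thyroperoxidase promoter measured by SteadyGlo luminescence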
[21] = target: T7, DNA repair protein RAD52 homolog (Homo sapiens, UniProt P43351); format: functional, biochemical
T7 sequence (P43351 whole entry): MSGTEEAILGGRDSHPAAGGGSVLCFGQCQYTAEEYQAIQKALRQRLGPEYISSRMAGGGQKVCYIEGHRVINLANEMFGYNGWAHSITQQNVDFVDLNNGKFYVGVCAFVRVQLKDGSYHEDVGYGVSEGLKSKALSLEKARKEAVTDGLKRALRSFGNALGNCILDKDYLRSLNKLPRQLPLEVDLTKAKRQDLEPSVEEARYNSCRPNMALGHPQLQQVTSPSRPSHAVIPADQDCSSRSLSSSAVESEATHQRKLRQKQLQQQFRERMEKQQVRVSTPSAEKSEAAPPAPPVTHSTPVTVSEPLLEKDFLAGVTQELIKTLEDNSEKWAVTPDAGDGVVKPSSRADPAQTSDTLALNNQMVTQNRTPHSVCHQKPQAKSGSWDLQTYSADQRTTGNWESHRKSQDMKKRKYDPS

[22] = target: Fructose-bisphosphate aldolase (Mycobacterium tuberculosis, UniProt P9WQA3); experiment: Fluorescence-based biochemical high throughput dose response assay for inhibitors of the fructose-bisphosphate aldolase (FBA) of M. tuberculosis.; format: functional
[23] = T. cruzi growth inhibition in host cells, dose response, cell-based, plate reader, dry powder, set 2 (AID 652275); format: functional
Protein Wnt-3a = Protein Wnt-3a (Mus musculus, UniProt P27467); experiment: SAR analysis of small molecule antagonists of Gli-SUFU in a Wnt3a luminescent reporter assay.; format: functional
[24] = target: T8, Microphthalmia-associated transcription factor (Homo sapiens, UniProt O75030); experiment: TRPM1 promoter luciferase signal decrease, dose response, MITF inhibitor project, cell-based, SK-MEL-5, cherry-picked, set 3 (AID 493073); format: functional
T8 sequence (O75030 whole entry): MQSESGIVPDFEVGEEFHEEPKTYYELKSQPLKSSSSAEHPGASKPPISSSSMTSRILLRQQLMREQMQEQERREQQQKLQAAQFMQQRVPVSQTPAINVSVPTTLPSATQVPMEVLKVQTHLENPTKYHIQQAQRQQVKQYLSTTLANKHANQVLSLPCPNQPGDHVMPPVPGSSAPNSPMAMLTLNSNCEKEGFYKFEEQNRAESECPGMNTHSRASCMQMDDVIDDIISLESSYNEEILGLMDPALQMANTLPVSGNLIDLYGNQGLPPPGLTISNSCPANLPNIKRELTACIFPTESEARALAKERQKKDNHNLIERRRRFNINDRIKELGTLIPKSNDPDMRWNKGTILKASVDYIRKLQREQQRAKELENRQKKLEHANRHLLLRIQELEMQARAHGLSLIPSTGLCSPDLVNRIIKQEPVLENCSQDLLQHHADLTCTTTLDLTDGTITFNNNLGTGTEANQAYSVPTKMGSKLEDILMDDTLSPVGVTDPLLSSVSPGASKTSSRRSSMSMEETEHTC

Steroidogenic factor 1 = Steroidogenic factor 1 (Homo sapiens, UniProt Q13285); experiment: Counterscreen for inverse agonists of the liver receptor homolog-1 (LRH-1; NR5A2): Luminescence-based cell-based high throughput dose response assay to identify inverse agonists of the Steroidogenic Factor 1 Nuclear Receptor (SF1; NR5A1).; format: functional
[25] = target: Nuclear receptor subfamily 5 group A member 2 (Homo sapiens, UniProt O00482); format: functional, cell-based;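 note: HEK293T cells transfected with LRH-1 and a StAR promoter luciferase reporter; potency for inhibitors that lower LRH-1 driven reporter light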
[26] = StAR promoter reporter inhibition counter-screen, dose response, counter-screen for LRH-1 inverse agonist project, cell-based, luminescence, luciferase reporter (AID 651969); format: functional
[27] = target: Dual specificity tyrosine-phosphorylation-regulated kinase 1A (Rattus norvegicus, UniProt Q63470); format: biochemical, Homo sapiens

T1 sequence (Q5J463 whole entry): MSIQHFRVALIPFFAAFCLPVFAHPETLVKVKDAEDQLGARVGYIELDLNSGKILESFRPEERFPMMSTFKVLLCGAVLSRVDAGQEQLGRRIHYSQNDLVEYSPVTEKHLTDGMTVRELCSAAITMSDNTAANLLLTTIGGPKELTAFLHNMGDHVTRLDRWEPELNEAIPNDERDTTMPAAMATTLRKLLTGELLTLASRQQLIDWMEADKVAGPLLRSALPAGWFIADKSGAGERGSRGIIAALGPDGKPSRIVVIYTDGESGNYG
T2 sequence (Q79MP6 whole entry): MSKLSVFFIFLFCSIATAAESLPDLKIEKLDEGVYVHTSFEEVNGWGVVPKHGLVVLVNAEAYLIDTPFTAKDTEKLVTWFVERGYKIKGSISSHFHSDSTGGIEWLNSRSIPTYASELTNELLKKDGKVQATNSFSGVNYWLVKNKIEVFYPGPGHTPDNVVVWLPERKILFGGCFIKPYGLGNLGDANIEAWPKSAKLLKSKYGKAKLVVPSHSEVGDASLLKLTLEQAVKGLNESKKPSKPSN
Chain of Fructose-bisphosphate aldolase (P9WQA3 whole entry): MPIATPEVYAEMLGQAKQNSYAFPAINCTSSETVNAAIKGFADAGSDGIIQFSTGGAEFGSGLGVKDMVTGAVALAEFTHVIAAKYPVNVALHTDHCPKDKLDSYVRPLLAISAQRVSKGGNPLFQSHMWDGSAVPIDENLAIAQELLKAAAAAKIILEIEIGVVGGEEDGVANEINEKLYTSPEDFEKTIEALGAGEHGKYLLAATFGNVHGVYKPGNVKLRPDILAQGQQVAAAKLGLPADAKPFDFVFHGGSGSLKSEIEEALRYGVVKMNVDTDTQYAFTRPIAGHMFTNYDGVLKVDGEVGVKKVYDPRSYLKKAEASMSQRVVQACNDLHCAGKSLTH
Chain of Beta Lactamase (Q932Y6 whole entry, the tested form may be a part): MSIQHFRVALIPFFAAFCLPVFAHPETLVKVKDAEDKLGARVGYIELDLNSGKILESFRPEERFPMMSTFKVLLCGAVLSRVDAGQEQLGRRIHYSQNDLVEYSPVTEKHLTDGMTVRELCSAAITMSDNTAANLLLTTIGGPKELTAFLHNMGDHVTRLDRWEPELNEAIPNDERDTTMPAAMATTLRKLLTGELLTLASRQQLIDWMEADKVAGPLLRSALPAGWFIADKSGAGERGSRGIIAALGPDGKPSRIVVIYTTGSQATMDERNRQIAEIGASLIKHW
Chain of Galanin receptor type 3 (O60755 whole entry): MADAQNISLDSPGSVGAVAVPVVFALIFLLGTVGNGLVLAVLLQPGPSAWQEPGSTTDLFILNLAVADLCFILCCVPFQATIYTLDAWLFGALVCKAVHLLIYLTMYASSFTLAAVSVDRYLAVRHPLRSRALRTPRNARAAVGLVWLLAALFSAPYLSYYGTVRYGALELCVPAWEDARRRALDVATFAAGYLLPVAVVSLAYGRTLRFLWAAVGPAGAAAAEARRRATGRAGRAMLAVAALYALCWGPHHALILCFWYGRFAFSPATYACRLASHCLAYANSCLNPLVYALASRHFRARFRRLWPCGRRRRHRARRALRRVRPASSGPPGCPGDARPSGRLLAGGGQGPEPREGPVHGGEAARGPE
Chain of Protein Wnt-3a (P27467 whole entry): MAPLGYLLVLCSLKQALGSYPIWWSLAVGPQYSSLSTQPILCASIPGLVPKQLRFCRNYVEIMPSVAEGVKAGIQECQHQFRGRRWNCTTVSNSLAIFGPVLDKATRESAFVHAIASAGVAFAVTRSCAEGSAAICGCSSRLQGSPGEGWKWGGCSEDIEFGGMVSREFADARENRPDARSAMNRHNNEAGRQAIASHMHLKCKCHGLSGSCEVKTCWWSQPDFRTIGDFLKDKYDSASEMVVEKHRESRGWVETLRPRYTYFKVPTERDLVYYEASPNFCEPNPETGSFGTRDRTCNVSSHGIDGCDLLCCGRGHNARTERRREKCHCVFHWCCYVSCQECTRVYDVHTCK
T4 sequence (P65502 whole entry): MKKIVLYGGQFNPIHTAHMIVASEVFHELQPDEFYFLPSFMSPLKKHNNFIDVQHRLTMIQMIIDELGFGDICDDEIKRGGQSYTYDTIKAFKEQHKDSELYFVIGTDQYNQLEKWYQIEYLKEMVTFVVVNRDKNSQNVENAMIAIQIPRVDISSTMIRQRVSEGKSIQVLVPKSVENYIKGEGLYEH
Chain of Large T antigen (P03070 whole entry): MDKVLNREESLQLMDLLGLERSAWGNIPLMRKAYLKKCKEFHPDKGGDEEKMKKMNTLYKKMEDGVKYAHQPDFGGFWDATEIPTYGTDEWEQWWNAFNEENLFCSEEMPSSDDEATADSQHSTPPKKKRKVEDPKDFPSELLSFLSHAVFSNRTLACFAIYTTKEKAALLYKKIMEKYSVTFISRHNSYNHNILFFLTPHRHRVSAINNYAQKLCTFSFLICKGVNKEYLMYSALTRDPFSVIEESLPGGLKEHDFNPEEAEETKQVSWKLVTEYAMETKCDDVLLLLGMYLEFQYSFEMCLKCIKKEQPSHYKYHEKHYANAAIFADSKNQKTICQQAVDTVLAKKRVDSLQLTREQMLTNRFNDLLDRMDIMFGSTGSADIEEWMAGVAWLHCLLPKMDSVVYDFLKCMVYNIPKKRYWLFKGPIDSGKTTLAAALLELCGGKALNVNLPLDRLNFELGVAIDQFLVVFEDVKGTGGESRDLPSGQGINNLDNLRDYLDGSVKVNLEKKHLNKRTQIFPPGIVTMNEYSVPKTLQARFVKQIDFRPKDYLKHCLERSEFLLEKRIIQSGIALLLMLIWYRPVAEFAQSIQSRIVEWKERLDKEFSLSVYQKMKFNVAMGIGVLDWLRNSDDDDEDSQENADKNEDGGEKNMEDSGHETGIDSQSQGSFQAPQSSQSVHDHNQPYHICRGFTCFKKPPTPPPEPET
Chain of Nuclear receptor subfamily 5 group A member 2 (O00482 whole entry): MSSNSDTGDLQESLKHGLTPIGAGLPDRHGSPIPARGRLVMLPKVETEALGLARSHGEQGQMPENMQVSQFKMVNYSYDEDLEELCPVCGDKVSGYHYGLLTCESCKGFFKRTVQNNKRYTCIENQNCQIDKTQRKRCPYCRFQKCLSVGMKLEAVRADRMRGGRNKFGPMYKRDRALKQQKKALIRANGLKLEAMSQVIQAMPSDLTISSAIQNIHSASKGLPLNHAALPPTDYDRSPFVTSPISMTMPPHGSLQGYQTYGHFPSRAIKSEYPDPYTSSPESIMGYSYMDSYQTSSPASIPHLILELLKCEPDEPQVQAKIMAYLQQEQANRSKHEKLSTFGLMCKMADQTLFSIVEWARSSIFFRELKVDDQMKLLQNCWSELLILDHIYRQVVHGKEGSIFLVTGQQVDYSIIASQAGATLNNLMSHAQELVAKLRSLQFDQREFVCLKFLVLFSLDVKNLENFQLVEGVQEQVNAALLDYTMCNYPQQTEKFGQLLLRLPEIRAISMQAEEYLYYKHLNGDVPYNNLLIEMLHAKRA
Chain of Paired box protein Pax-8 (Q06710 whole entry): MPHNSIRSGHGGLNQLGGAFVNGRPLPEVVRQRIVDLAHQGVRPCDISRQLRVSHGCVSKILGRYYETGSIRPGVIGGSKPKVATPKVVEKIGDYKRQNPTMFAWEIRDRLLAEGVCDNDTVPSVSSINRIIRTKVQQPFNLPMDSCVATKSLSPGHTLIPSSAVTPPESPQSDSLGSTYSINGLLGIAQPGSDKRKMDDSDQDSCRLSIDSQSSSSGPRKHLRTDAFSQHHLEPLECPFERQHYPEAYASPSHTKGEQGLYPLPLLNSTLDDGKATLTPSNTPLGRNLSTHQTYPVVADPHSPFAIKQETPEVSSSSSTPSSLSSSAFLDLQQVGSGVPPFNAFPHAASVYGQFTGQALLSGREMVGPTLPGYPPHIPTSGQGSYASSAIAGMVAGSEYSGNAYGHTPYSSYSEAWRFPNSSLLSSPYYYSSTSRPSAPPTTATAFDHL
Chain of FAD-linked sulfhydryl oxidase ALR (P55789 whole entry): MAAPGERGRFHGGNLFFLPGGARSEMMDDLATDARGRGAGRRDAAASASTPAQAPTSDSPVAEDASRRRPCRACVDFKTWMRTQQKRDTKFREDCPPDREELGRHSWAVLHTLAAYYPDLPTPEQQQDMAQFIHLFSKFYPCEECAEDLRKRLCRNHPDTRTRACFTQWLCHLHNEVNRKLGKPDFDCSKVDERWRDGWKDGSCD
Chain of Steroidogenic factor 1 (Q13285 whole entry): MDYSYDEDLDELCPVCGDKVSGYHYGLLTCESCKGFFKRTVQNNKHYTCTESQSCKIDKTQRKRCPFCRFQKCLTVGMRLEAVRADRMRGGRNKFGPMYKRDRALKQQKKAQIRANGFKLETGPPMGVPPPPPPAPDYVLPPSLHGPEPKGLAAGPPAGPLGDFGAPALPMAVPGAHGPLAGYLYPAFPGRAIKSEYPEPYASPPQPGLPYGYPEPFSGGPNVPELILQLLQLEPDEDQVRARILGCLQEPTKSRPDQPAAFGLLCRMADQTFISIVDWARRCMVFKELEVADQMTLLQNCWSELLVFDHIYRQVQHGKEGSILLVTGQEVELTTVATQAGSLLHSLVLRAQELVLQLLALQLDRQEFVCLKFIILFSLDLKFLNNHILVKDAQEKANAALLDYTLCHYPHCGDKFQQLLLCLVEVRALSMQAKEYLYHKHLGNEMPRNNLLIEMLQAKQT

CCC(NCCC(c1ccccc1)c1ccccc1)=C1C(=O)NC(=O)NC1=O
IC50 (Galanin receptor type 3): 5.36 µM (active)
EC50 (cells): > 29.9 µM (inactive)

CCCCC(Sc1nc(N)c(NC(=O)c2ccco2)c(=O)[nH]1)C(=O)O (stereo unspecified)
IC50 (Beta-lactamase [1]): > 59.6 µM (inactive)
IC50 (Beta-lactamase [2]): > 59.6 µM (inactive)

COc1ccc(CN(C)c2ccc(S(=O)(=O)N3CCN(C)CC3)cc2[N+](=O)[O-])cc1OC
IC50 (Jurkat): > 80 µM (inactive)
AC50 [3]: 23.8 µM (active)
AC50 [4]: 0.691 µM (active)
IC50 (Galanin receptor type 3): 0.419 µM (active)
EC50 (cells): > 29.9 µM (inactive)
IC50 [5]: 2.05 µM (active)
AC50 (INS1): 1.45 µM (active)
IC50 [6]: > 80 µM (inactive)
AC50 [7]: 0.824 µM (active)

Sc1nnc(C2CC2)n1Cc1ccco1
IC50 (Beta-lactamase [8]): > 59.6 µM (inactive)
IC50 (Beta-lactamase [9]): > 59.6 µM (inactive)
IC50 (Beta-lactamase [10]): > 59.6 µM (inactive)

CCC(=O)Nc1ccc(C(=O)COC(=O)c2nc3nccc(C)n3n2)cc1
IC50 [11]: 4.5 µM (active)
IC50 [12]: 1.92 µM (active)

O=C(Nc1cccc(N2C(=O)C=CC2=O)c1)c1cccs1
IC50 (Large T antigen): 70.5 µM (active)
IC50 (Beta Lactamase): 14.1 µM (inactive)
IC50 [13]: 2.27 µM (active)
EC50 [14]: 4.6 µM (active)
EC50 [15]: 2.12 µM (active)

O=C(O)c1c(C(=O)O)c(-c2ccc(Br)cc2)n2c1CSC2
IC50 (Beta-lactamase [8]): > 59.6 µM (inactive)
AC50 [16]: 5.35 µM (active)
IC50 (Beta-lactamase [9]): 41.9 µM (inactive)
IC50 (Beta-lactamase [10]): > 59.6 µM (inactive)

CC(C)(C)c1cc(NCCCn2ccnc2)n2ncc(-c3ccc(Cl)cc3)c2n1
EC50 [17]: 1.91 µM (active)
IC50 [18]: > 20 µM (inactive)
EC50 (Streptococcus): 6.12 µM (active)
EC50 [14]: 5.5 µM (active)
AC50 [19]: 1.45 µM (active)
EC50 [15]: 1.49 µM (active)
EC50 (Streptokinase A): > 150 µM (not active)

CCSc1ccc(-c2cc(NC=O)c3ncc(-c4cccc(C(=O)NCCN(C)C)c4)n3c2)cc1
AC50 [20]: 53.9 µM (active)
IC50 (Beta Lactamase): 20 µM (inactive)
IC50 [13]: 11.8 µM (inactive)
AC50 (Paired box protein Pax-8): 9.88 µM (active)
AC50 [21]: 1.14 µM (active)

CC(=O)NCCNC(=O)C1Cc2c(-c3ccc4c(c3)OCO4)ccnc2O1 (stereo unspecified)
IC50 [22]: 1.73 µM (active)

C[C@H]1CN([C@@H](C)CO)C(=O)c2cccc(NC(=O)c3ccncc3)c2O[C@@H]1CN(C)Cc1ccc(F)c(F)c1
AC50 [23]: 0.0246 µM (active)

O=C(Nc1cc(N2CCCCC2)ncn1)c1cccc2ccccc12
IC50 (Protein Wnt-3a): > 21.8 µM (inactive)

CC1CCCCN1c1cc(NC(=O)c2ccccc2)ncn1 (stereo unspecified)
IC50 (Protein Wnt-3a): > 21.8 µM (inactive)

Cc1ccccc1OCC(=O)N/N=C/c1ccc([N+](=O)[O-])o1
AC50 [24]: 8.22 µM (active)
IC50 (Steroidogenic factor 1): 6.24 µM (active)
IC50 [25]: 10.6 µM (inactive)
EC50 [14]: > 30 µM (not active)
EC50 [15]: 0.151 µM (active)
IC50 [26]: 29.9 µM (inactive)

CC1(C)C=Cc2cc3ccc(=O)oc3cc2O1 [XANTHYLETIN]
AC50 [27]: 8.65 µM (active)
IC50 [22]: > 1.11 µM (active)
